Assay results from patent US20060147388A1, “Pharmaceutical compositions for nasal delivery” (priority 2003, published 2006).
Values joined by “and” are separate entries in the source; they are usually repeats but may differ in a detail not shown here. Equal entries are not always repeated.

Tested on: ‘off’ period in subjects with PD
Assay: Single-dose reversal of 'off' period in subjects with PD, subcutaneous vs intra-nasal apomorphine
Format: in vivo, human
Conditions: for Duration of ‘on’ response / Latency for ‘on’ response: s/c (subcutaneous), normal dose 2-5 mg, individual PD subjects 1-6
Text: The nasal powder formulation used in this study was in accordance with this invention prepared using the method of Method example 1 and comprised the following components:
Six subjects with PD complicated by motor fluctuations were studied, 5 male (mean age 64 years, range 57-70 years), […]. The mean duration of disease was 13 years (range 7-24 years). […] On each dosing day the subjects attended the clinic and their normal oral medication was withheld until an ‘off’ episode developed. Each subject then received the designated apomorphine dose (subcutaneous or nasal). The abbreviated Unified PD Rating Scale (UPDRS) was used to assess motor performance at regular intervals following each apomorphine dosing. The time for the ‘off’ period to be fully alleviated and the duration of this response were determined primarily by patient feedback and supported by clinical judgement and the UPDRS scores.

[1] = subcutaneous dosing 2-5 mg, mean of 6 subjects

SMILES: CN1CCc2cccc3c2[C@H]1Cc1ccc(O)c(O)c1-3 [subcutaneous apomorphine, Apomorphine]
- Duration of ‘on’ response (subcutaneous dose 2 mg): 75 min and 96 min
- Latency for ‘on’ response (subcutaneous dose 2 mg): 20 min
- Duration of ‘on’ response (subcutaneous dose 4 mg): 65 min and 48 min and 43 min
- Latency for ‘on’ response (subcutaneous dose 4 mg): 14 min (2×) and 30 min
- Duration of ‘on’ response (subcutaneous dose 5 mg): 46 min
- Latency for ‘on’ response (subcutaneous dose 5 mg): 61 min
- Mean duration of ‘on’ response [1]: 62 min
- Mean latency of ‘on’ response [1]: 27 min
- Range of latency of response (subcutaneous dosing 2-5 mg, range over 6 subjects): 14 to 61 min
- Range of duration of response (subcutaneous dosing, range over 6 subjects): 43 to 96 min
